In PMC6325219, “Preclinical Characterization of NVR 3-778, a First-in-Class Capsid Assembly Modulator against Hepatitis B Virus” (Antimicrobial Agents and Chemotherapy, 2018):
Values joined by “and” are separate entries in the source; they are usually repeats but may differ in a detail not shown here. Equal entries are not always repeated. Structures can show the parent of a compound that is named as a salt. Marks after values point to notes of the source that are not given here.

How the values were obtained:
HBV T109M core variant = system: HBV T109M core variant; set-up: method as in doi:10.1016/S0168-8278(18)30439-2; details: phase 1b; cited from earlier work
[1] = system: HBV core protein variant T109I; set-up: method as in PMID 26598693; details: previously published results; cited from earlier work
[2] = system: HBV core protein variant Y118F; set-up: method as in PMID 26598693; details: previously published results; cited from earlier work
[3] = system: HBV core protein variant I105V; set-up: method as in PMID 26598693; details: previously published results; cited from earlier work
HBV GT B (wild-type HBV) [4] = system: HBV GT B (wild-type HBV); set-up: method as in PMID 26598693; details: reference; previously published results; cited from earlier work
[5] = system: HBV core protein variant I105L; set-up: method as in PMID 26598693; details: previously published results; cited from earlier work
[6] = system: HBV core protein variant I105T; set-up: method as in PMID 26598693; details: previously published results; cited from earlier work
[7] = system: HBV core protein variant T109M; set-up: method as in PMID 26598693; details: previously published results; cited from earlier work
[8] = system: HBV core protein variant T109S; set-up: method as in PMID 26598693; details: previously published results; cited from earlier work
HBV rtA181V variant = assay: microbe, parasite or virus in culture; type: cell-based, hepatitis B virus; details: for EC50 fold change, rtA181V: ratio of mean EC50 against variant over WT HBV, HepG2 cells
Text: (§1) Plasmids containing HBV DNA with rtN236T, rtA181V, rtA181V/N236T, and rtL180M/M204V/N236T were generated using the GT B WT or rtL180M/M204V DNA-containing plasmids and site-directed mutagenesis (Agilent Technologies). A panel of nine different HBV core variants (cW102G, cW102R, cI105V, cI105L, cI105T, cT109S, cT109M, cT109I, and cY118F) was generated, also using the GT B WT DNA-containing plasmid and site-directed mutagenesis. The full-length genome from all plasmids was sequenced to confirm that only the intended nucleotide change(s) was present. Finally, HBV sequences from genotypes A (GenBank accession number AF305422), C (GenBank accession number AB033550), D (GenBank accession number V01460), E (GenBank accession number AB274971), F (GenBank accession number AB036912), G (GenBank accession number AF160501), and H (GenBank accession number AB375159) were gene synthesized as 1.1 times the genome length together with part of the CMV promoter at the 5′ end. The gene-synthesized piece was validated by sequencing and subcloned into the pCMV-HBV plasmid using the restriction sites SalI and NdeI (Genewiz, USA).
(§2) HepG2 cells were seeded in 96-well plates at a density of 20,000 cells/well and allowed to attach overnight at 37°C in 5% CO2. Cells were cotransfected with the HBV plasmids (100 ng/well) and a Gaussia expression plasmid (10 ng/well) (Thermo Scientific) using the Lipofectamine LTX Plus transfection reagent (Life Technologies). Transfection mixtures were removed after overnight incubation, and cells were treated with serially diluted NVR 3-778 at a final dimethyl sulfoxide (DMSO) concentration of 0.5%. After 3 days of incubation with the compound, the supernatants were collected and secreted Gaussia luciferase was measured using a Gaussia Flash luciferase assay kit (Thermo Scientific). Cells were lysed with 0.33% NP-40 (Thermo Scientific), and the cytoplasmic fractions were treated with 2 units of Turbo DNase (Invitrogen) and 10 units of S7 nuclease (Roche) in CutSmart buffer (New England Biolabs) containing 25 µM CaCl2 (G-Biosciences) at 37°C for 60 min, followed by inactivation of the enzymes at 75°C for 15 min. Samples were diluted into lysis buffer (Affymetrix) containing 2.5 µg proteinase K (Affymetrix) at 50°C for 40 min. Intracellular encapsidated HBV DNA was denatured for 30 min at 25°C in 0.2 M NaOH (Sigma) and incubated with HBV DNA probes designed to hybridize to the minus-strand HBV DNA (Affymetrix). The denatured DNA was subsequently detected using a QuantiGene assay kit, according to the branched DNA (bDNA) assay recommended by the manufacturer (Affymetrix).
(§3) To determine percent inhibition, the mean background signal from wells containing only culture medium was subtracted from the signal for all other samples, and percent inhibition at each compound concentration was calculated by normalization to the signals for HepG2.2.15 cells treated with 0.5% DMSO. […] Both CalcuSyn and MacSynergy II (Ann Arbor, MI) software were used to evaluate the effect of compound combinations ([27]). After data analysis at the 95% confidence level, values of synergy or antagonism of <25 µM^2% were defined as insignificant, those between 25 and 50 µM^2% were defined as minor, those between 50 and 100 µM^2% were defined as moderate, and those of >100 µM^2% were defined as strong.

[9] = system: HBV rtL180M/M204V variant; assay: microbe, parasite or virus in culture; type: cell-based, hepatitis B virus; details: for EC50 fold change, rtL180M/M204V: ratio of mean EC50 against variant over WT HBV, HepG2 cells
Text: as §1, §2, §3

[10] = system: HBV rtL180M/M204V/N236T variant; assay: microbe, parasite or virus in culture; type: cell-based, hepatitis B virus; details: ratio of mean EC50 against variant over WT HBV, HepG2 cells
Text: as §1, §2, §3

HBV [11] = assay: Combination study of NVR 3-778 with nucleos(t)ide analogs in HepG2.2.15 cells (MacSynergy II, CalcuSyn); type: cell-based, hepatitis B virus (GT D); details: in combination with NVR 3-778; for Antagonism / Synergy: HepG2.2.15 cells, 6 days, MacSynergy II, 95% confidence; for CalcuSyn-predicted effect: based on overall CI; for MacSynergy-predicted effect: volumes <25 µM^2% defined as insignificant
Protocol: The effect of the compound combinations on cell viability was evaluated by measuring the intracellular ATP levels of HepG2.2.15 cells.
(§4) HepG2.2.15 cells were seeded in 96-well plates at a density of 40,000 cells/well and incubated with serially diluted compounds at a final DMSO concentration of 0.5%. In combination studies, cells were treated with compounds either alone or in combination after combining the compounds in a checkerboard format. In studies examining the effect of human serum, serially diluted NVR 3-778 was added into cell culture medium containing 0% to 40% human serum (BioreclamationIVT). Cells were incubated with the compounds for 3 days, after which the medium was removed, fresh medium containing the compounds was added to the cells, and the cells were incubated for another 3 days prior to harvesting of the supernatants or cells for antiviral assays. To quantify intracellular encapsidated rcDNA or encapsidated pgRNA, cells were first solubilized using lysis buffer containing 1% NP-40 and 10 mM CaCl2. The cytoplasmic fraction was then treated with S7 nuclease (6 units) to remove nonencapsidated nucleic acids, after which the S7 nuclease was inactivated by the addition of EDTA (0.5 M). To quantify extracellular HBV DNA or HBV RNA, supernatants from HepG2.2.15 cells were treated with Turbo DNase at 37°C for 60 min, followed by inactivation of DNase at 75°C for 15 min. The levels of HBV DNA were determined by a bDNA assay as described above (Affymetrix). Supernatants or cell lysates containing HBV RNA were treated with proteinase K (2.5 µg) at 50°C for 40 min, transferred to a capture plate containing HBV RNA probe sets, and hybridized overnight at 55°C. Captured HBV RNA was measured by the addition of a chemiluminescent substrate using a QuantiGene assay (Affymetrix). To determine the cytotoxicity effect of the compounds on proliferating cells, HepG2.2.15 cells were seeded in 96-well plates at a density of 10,000 cells/well and incubated with serially diluted compounds at a final DMSO concentration of 0.5% for 3 days, after which the medium was removed, fresh medium containing the compounds was added to the cells, and the cells were incubated for another 3 days. At day 6, the CellTiter-Glo reagent was added to the cells and viability was determined according to the manufacturer’s protocol (Promega). Luminescence signals were measured at 0.2 s using a Victor X4 multimode plate reader (PerkinElmer).
as §3

[12] = system: HBV rtA181V/N236T variant; type: cell-based, hepatitis B virus; details: ratio of mean EC50 against variant over WT HBV, HepG2 cells
Text: as §1, §2, §3

HBV rtN236T variant = type: cell-based, hepatitis B virus; details: ratio of mean EC50 against variant over WT HBV, HepG2 cells
Text: as §1, §2, §3

HBV GT B (wild-type HBV) [13] = assay: Transient-transfection antiviral study in HepG2 cells, GT B (wild-type HBV); type: cell-based, hepatitis B virus; details: Hepatitis B virus, HepG2, read-out: WT EC50
Protocol: (§5) Cells were cotransfected with the HBV plasmids (100 ng/well) and a Gaussia expression plasmid (10 ng/well) (Thermo Scientific) using the Lipofectamine LTX Plus transfection reagent (Life Technologies). Transfection mixtures were removed after overnight incubation, and cells were treated with serially diluted NVR 3-778 at a final dimethyl sulfoxide (DMSO) concentration of 0.5%. After 3 days of incubation with the compound, the supernatants were collected and secreted Gaussia luciferase was measured using a Gaussia Flash luciferase assay kit (Thermo Scientific). […] Samples were diluted into lysis buffer (Affymetrix) containing 2.5 µg proteinase K (Affymetrix) at 50°C for 40 min. Intracellular encapsidated HBV DNA was denatured for 30 min at 25°C in 0.2 M NaOH (Sigma) and incubated with HBV DNA probes designed to hybridize to the minus-strand HBV DNA (Affymetrix). The denatured DNA was subsequently detected using a QuantiGene assay kit, according to the branched DNA (bDNA) assay recommended by the manufacturer (Affymetrix).

[14] = system: nucleoside-resistant HBV variants; assay: Transient-transfection antiviral study, panel of nucleoside-resistant HBV variants (summary statements); type: cell-based, hepatitis B virus; details: versus WT HBV
Protocol: as §5

HBV [15] = assay: Antiviral studies using HepG2.2.15 cells (HBV DNA and HBV RNA readouts); type: cell-based, hepatitis B virus (GT D); details: HepG2.2.15 cells
Protocol: as §4, with “In” for “HepG2.2.15 cells were seeded in 96-well plates at a density of 40,000 cells/well and incubated with serially diluted compounds at a final DMSO concentration of 0.5%. In”, “To quantify extracellular HBV DNA or HBV RNA, supernatants from HepG2.2.15 cells were treated with Turbo DNase at 37°C for 60 min, followed by inactivation of DNase at 75°C for 15 min.” left out, “To determine the cytotoxicity effect of the compounds on proliferating cells, HepG2.2.15 cells were seeded in 96-well plates at a density of 10,000 cells/well and incubated with serially diluted compounds at a final DMSO concentration of 0.5% for 3 days, after which the medium was removed, fresh medium containing the compounds was added to the cells, and the cells were incubated for another 3 days.” left out

Row | SMILES | EC50 FC, T109I [1] [fold] | EC50 FC, Y118F [2] [fold] | EC50 FC, I105V [3] [fold] | EC50 FC, wild type (HBV GT B (wild-type HBV) [4]) [fold] | EC50 FC, I105L [5] [fold] | EC50 FC, I105T [6] [fold] | EC50 FC, T109M [7] [fold] | EC50 FC, T109S [8] [fold] | EC50 fold change, rtA181V (HBV rtA181V variant) | EC50 fold change, rtL180M/M204V [9] | EC50 fold change, rtL180M/M204V/N236T [10] | Antagonism (HBV [11]) [μM^2%] | Synergy (HBV [11]) [μM^2%] | CalcuSyn-predicted effect (HBV [11]) | MacSynergy-predicted effect (HBV [11]) | EC50 fold change, rtA181V/N236T [12] | EC50 fold change, rtN236T (HBV rtN236T variant) | EC50 (HBV GT B (wild-type HBV) [13]) [nM] | also measured
1 | O=C(NCc1cnc(C(F)(F)F)s1)c1ccc2c(c1)NC(=O)c1ccccc1S2(=O)=O [ABI-H0731] | – | – | – | – | – | – | – | – | – | – | – | – | – | – | – | – | – | – | Antiviral response in a patient with a preexisting T109M core variant (HBV T109M core variant): reduced antiviral response
2 | COC(=O)C1=C(C)NC(c2ncc(F)cc2F)=N[C@H]1c1ccc(F)cc1Cl [Bay 41-4109] | 21 | 8.2 | 1.3 | 1 | 0.44 | 1.5 | 3.7 | 0.40 | – | – | – | – | – | – | – | – | – | – | –
3 | C=C1[C@H](CO)[C@@H](O)C[C@@H]1n1cnc2c(=O)[nH]c(N)nc21 [ETV, entecavir] | – | – | – | – | – | – | – | – | 2.2 ± 0.5^a fold | 31 fold and 31 ± 16^a fold | 14 fold and 14 ± 4^a fold | −16.5 | 1.0 | Slight to moderate synergy | Additive | 1.8 ± 0.6^d fold | 0.67 ± 0.22^d fold | 1.4 ± 0.4 | –
4 | COC(=O)C1=C(CN2CCOCC2)NC(c2nccs2)=N[C@@H]1c1ccc(F)cc1Br [NVR-010-001-E2] | 9.2 | 3.7 | 1.3 | 1 | 0.49 | 1.2 | 2.8 | 0.43 | – | – | – | – | – | – | – | – | – | – | –
5 | CC(C)OC(=O)OCOP(=O)(CO[C@H](C)Cn1cnc2c(N)ncnc21)OCOC(=O)OC(C)C [TDF, Tenofovir disoproxil fumarate] | – | – | – | – | – | – | – | – | 1.4 ± 0.05^d fold | 1.1 ± 0.3^d fold | 2.9 ± 1.5^b fold | – | – | – | – | 2.8 ± 1.4^b fold | 2.2 ± 1.0^b fold | 32 ± 15 | Reduction of antiviral activity against the variants that contained rtN236T [14]: about 3 fold; EC50 (HBV rtA181V variant; Hepatitis B virus, HepG2, read-out: EC50 (mean), rtA181V variant): 43 nM; EC50 ([9]; Hepatitis B virus, HepG2, read-out: EC50 (mean), rtL180M/M204V variant): 34 nM
6 | C[C@H](Cn1cnc2c(N)ncnc21)OCP(=O)(O)O [TFV, tenofovir] | – | – | – | – | – | – | – | – | – | – | – | −7.3 | 18.5 | Slight to moderate synergy | Additive | – | – | – | Effect on HBV DNA production (HBV [15]): inhibited HBV DNA production; Effect on intracellular encapsidated HBV RNA and secreted HBV RNA (HBV [15]; dose-dependent): increased the levels
